Measured values published in patent US6355799B1, “Substituted benzene compounds, process for their preparation, and herbicidal and defoliant compositions containing them” (ISK Americas Incorporated, priority 1997, dated 2002).

Key:
Assay type in all cases: in vivo
[1] = test system: field corn (Zea mays L., var. Dekalb 535, CORN); experiment: Pre-emerge test, crop safety; settings: pre-emerge, 14 days after application, scale 0-100
Method in brief: (§1)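 Applied at 15–1000 g ai/ha from acetone in 187 l/ha spray volume. Post-emergence applications included 0.25% v/v non-ionic surfactant and reached plants sown 8–21 days before. Pre-emergence applications were incorporated by surface watering. Efficacy or crop damage was rated on a 0–100 scale after 14 days.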

[2] = test system: upland rice (Oryza sp., var. Tebonnet, RICE); experiment: Pre-emerge test, crop safety; settings: pre-emerge, 14 days after application, scale 0-100
Method in brief: as §1

[3] = test system: green foxtail (Setaria viridis, SETVI); experiment: Pre-emerge test, greenhouse herbicide activity screening; settings: pre-emerge, 14 days after application, scale 0-100
Method in brief: (§2)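 Compounds in acetone were track-sprayed at 15-1000 g ai/ha (187 l/ha) on sandy loam pots: pre-emerge one day after seeding, post-emerge at 2-3 leaf stage with 0.25% v/v non-ionic surfactant. Phytotoxicity was rated 14 days later on a 0 (no damage) to 100 (complete death) scale.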

[4] = test system: johnsongrass (Sorghum halepense, SORHA); experiment: as above; settings: pre-emerge, 14 days after application, scale 0-100
Method in brief: as §2

[5] = test system: lambsquarters (Chenopodium album, CHEAL); experiment: as above; settings: pre-emerge, 14 days after application, scale 0-100
Method in brief: as §2

[6] = test system: ivyleaf morningglory (Ipomoea hederacea, IPOHE); experiment: as above; settings: pre-emerge, 14 days after application, scale 0-100
Method in brief: as §2

[7] = test system: large crabgrass (Digitaria sanguinalis, DIGSA); experiment: as above; settings: pre-emerge, 14 days after application, scale 0-100
Method in brief: as §2

[8] = test system: sicklepod (Cassia obtusifolia, CASOB); experiment: as above; settings: pre-emerge, 14 days after application, scale 0-100
Method in brief: as §2

[9] = test system: barnyardgrass (Echinochloa crus-galli, ECHCG); experiment: as above; settings: pre-emerge, 14 days after application, scale 0-100
Method in brief: as §2

[10] = test system: velvetleaf (Abutilon theophrasti, ABUTH); experiment: as above; settings: pre-emerge, 14 days after application, scale 0-100
Method in brief: as §2

[11] = test system: field corn (Zea mays L., var. Dekalb 535, CORN); experiment: Post-emerge test, crop safety; settings: post-emerge, 14 days after application, rating scale 0-100
Method in brief: as §2

[12] = test system: upland rice (Oryza sp., var. Tebonnet, RICE); experiment: Post-emerge test, crop safety; settings: post-emerge, 14 days after application, rating scale 0-100
Method in brief: as §2

[13] = test system: green foxtail (Setaria viridis, SETVI); experiment: Post-emerge test, greenhouse herbicide activity screening; settings: post-emerge, 14 days after application, rating scale 0-100
Method in brief: (§3)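 Each test used a mechanized track sprayer delivering 187 l/ha of acetone solution at 15–1000 g ai/ha. Post-emerge foliage at 2–3 leaves was treated with added 0.25% v/v non-ionic surfactant and bottom-watered only. Injury was assessed on day 14, where 100 means total kill.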

[14] = test system: johnsongrass (Sorghum halepense, SORHA); experiment: as above; settings: post-emerge, 14 days after application, rating scale 0-100
Method in brief: as §3

[15] = test system: lambsquarters (Chenopodium album, CHEAL); experiment: as above; settings: post-emerge, 14 days after application, rating scale 0-100
Method in brief: as §3

[16] = test system: ivyleaf morningglory (Ipomoea hederacea, IPOHE); experiment: as above; settings: post-emerge, 14 days after application, rating scale 0-100
Method in brief: as §3

[17] = test system: large crabgrass (Digitaria sanguinalis, DIGSA); experiment: as above; settings: post-emerge, 14 days after application, rating scale 0-100
Method in brief: as §3

[18] = test system: sicklepod (Cassia obtusifolia, CASOB); experiment: as above; settings: post-emerge, 14 days after application, rating scale 0-100
Method in brief: as §3

[19] = test system: barnyardgrass (Echinochloa crus-galli, ECHCG); experiment: as above; settings: post-emerge, 14 days after application, rating scale 0-100
Method in brief: as §3

[20] = test system: velvetleaf (Abutilon theophrasti, ABUTH); experiment: as above; settings: post-emerge, 14 days after application, rating scale 0-100
Method in brief: as §3

[21] = test system: redroot pigweed (Amaranthus retroflexus, AMARE); experiment: as above; settings: post-emerge, 14 days after application, rating scale 0-100
Method in brief: as §3

[22] = test system: redroot pigweed (Amaranthus retroflexus, AMARE); experiment: Pre-emerge test, greenhouse herbicide activity screening; settings: pre-emerge, 14 days after application, scale 0-100
Method in brief: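 Visual ratings on a 0-100 scale (0 no damage, 100 all plants dead) were taken at 14 days after treatment. Rates of 15-1000 g ai/ha in acetone, 187 l/ha, were sprayed onto soil one day after planting (pre-emerge) or onto 2-3 leaf plants with 0.25% v/v surfactant (post-emerge).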

COc1c(Br)cc(F)c(-n2c(=O)cc(C(F)(F)F)n(C)c2=O)c1NC(=O)C=Cc1ccccc1 [2-177]
90: phytotoxicity rating IPOHE ([6]; 250 g ai/ha)
40: phytotoxicity rating SETVI ([3]; 63 g ai/ha) | phytotoxicity rating IPOHE ([6]; 63 g ai/ha) | phytotoxicity rating CASOB ([8]; 250 g ai/ha) | phytotoxicity rating ECHCG ([9]; 250 g ai/ha) | SORHA phytotoxicity rating ([14]; 250 g ai/ha) | ECHCG phytotoxicity rating ([19]; 250 g ai/ha)
60: RICE phytotoxicity rating (crop damage) ([12]; 250 g ai/ha) | SETVI phytotoxicity rating ([13]; 250 g ai/ha)
10: phytotoxicity rating CORN (crop damage) ([1]; 250 g ai/ha) | phytotoxicity rating RICE (crop damage) ([2]; 63 g ai/ha)
30: phytotoxicity rating SORHA ([4]; 250 g ai/ha) | phytotoxicity rating DIGSA ([7]; 63 g ai/ha) | SORHA phytotoxicity rating ([14]; 63 g ai/ha) | DIGSA phytotoxicity rating ([17]; 63 g ai/ha)
15: CORN phytotoxicity rating (crop damage) ([11]; 63 g ai/ha)
50: RICE phytotoxicity rating (crop damage) ([12]; 63 g ai/ha) | DIGSA phytotoxicity rating ([17]; 250 g ai/ha)
45: SETVI phytotoxicity rating ([13]; 63 g ai/ha)
70: phytotoxicity rating SETVI ([3]; 250 g ai/ha) | phytotoxicity rating DIGSA ([7]; 250 g ai/ha) | phytotoxicity rating ABUTH ([10]; 63 g ai/ha)
100: phytotoxicity rating CHEAL ([5]; 63 g ai/ha) | phytotoxicity rating CHEAL ([5]; 250 g ai/ha) | phytotoxicity rating ABUTH ([10]; 250 g ai/ha) | CHEAL phytotoxicity rating ([15]; 63 g ai/ha) | CHEAL phytotoxicity rating ([15]; 250 g ai/ha) | IPOHE phytotoxicity rating ([16]; 63 g ai/ha) | IPOHE phytotoxicity rating ([16]; 250 g ai/ha) | CASOB phytotoxicity rating ([18]; 63 g ai/ha) | CASOB phytotoxicity rating ([18]; 250 g ai/ha) | ABUTH phytotoxicity rating ([20]; 63 g ai/ha) | ABUTH phytotoxicity rating ([20]; 250 g ai/ha) | AMARE phytotoxicity rating ([21]; 63 g ai/ha) | AMARE phytotoxicity rating ([21]; 250 g ai/ha) | phytotoxicity rating AMARE ([22]; 63 g ai/ha) | phytotoxicity rating AMARE ([22]; 250 g ai/ha)
20: phytotoxicity rating RICE (crop damage) ([2]; 250 g ai/ha) | CORN phytotoxicity rating (crop damage) ([11]; 250 g ai/ha) | ECHCG phytotoxicity rating ([19]; 63 g ai/ha)
0: phytotoxicity rating CORN (crop damage) ([1]; 63 g ai/ha) | phytotoxicity rating SORHA ([4]; 63 g ai/ha) | phytotoxicity rating CASOB ([8]; 63 g ai/ha) | phytotoxicity rating ECHCG ([9]; 63 g ai/ha)
